Measurements reported in US5202349A, “Substituted phenylacetylenes, pharmaceutical compositions containing these compounds and processes for the preparation of these compounds and compositions” (Gruenenthal GmbH, priority 1990, dated 1993).

How the values were obtained:
5-lipoxygenase = target: T1, 5-lipoxygenase (Rattus norvegicus, UniProt P12527); experiment: Inhibition of 5-lipoxygenase in rat basophilic leukemia cells ([14C]-arachidonic acid, TLC); format: cell-based; details: for IC50: rat basophilic leukemia cells, standardized to nordihydroguaiaretic acid; for Quotient (IC50 cyclooxygenase (B) / 5-lipoxygenase (A)): selectivity
T1 construct: endogenous in cells; host or cells: rat basophilic leukemia cells
T1 sequence (P12527 1-673): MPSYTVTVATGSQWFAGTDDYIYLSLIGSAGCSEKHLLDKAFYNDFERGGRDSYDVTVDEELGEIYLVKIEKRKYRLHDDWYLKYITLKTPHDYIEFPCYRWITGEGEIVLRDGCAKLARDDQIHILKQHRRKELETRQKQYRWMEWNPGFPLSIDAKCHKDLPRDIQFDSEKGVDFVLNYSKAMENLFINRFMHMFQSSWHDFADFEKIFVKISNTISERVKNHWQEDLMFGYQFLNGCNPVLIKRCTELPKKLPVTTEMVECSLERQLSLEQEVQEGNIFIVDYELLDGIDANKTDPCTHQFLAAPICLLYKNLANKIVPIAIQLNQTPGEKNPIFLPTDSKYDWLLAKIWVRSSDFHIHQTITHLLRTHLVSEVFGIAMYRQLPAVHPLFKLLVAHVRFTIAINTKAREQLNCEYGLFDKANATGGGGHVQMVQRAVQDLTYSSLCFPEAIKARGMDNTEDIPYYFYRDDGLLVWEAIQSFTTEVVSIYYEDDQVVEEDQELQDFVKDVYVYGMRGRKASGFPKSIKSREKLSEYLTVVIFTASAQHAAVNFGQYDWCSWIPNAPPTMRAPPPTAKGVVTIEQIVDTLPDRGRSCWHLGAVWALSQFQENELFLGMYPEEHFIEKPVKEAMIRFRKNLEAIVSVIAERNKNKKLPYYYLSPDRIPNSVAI
Experimental: To 1 ml each of this suspension there was added indomethacin (10 μM) and calcium chlorid (2 mM) and then the mixture was incubated in presence or absence of a test compound for 3 minutes and thereafter with 20 μM of [^14 C]-arachidonic acid and 20 μM of the calcium ionophore A 23 187 for 10 minutes. The reaction was stopped by adding 20 μl of glacial acetic acid and then the mixture was extracted with ethyl acetate to isolate the metabolites of arachidonic acid formed by the enzymatic action of 5-lipoxygenase. These were separated by thin layer chromatography using a solvent mixture known to be suitable for leukotriene analysis [c.f. Jakschik et al., Biochem. Biophys. Res. Commun. 102, 624 (1981)]. The distribution of the radioactivity to the different metabolites was measured using a TLC Linear Analyzer. By bringing into relationship the percentages of the amount of the products formed under the action of 5-lipoxygenase (5-HETE, isomers of LTB4) in the controls (tests performed in absence of test compounds) and in the presence of test compounds of formula I in different concentrations the "IC50 -value" (i.e. the concentration of the test compound which causes an 50%-inhibition of the 5-lipoxygenase) is determined. For standardization these values then were brought into relationship to the IC50 -values determined in the same manner for the standard compound nordihydroguaiaretic acid.

cyclooxygenase = target: T2, cyclooxygenase (Ovis aries, UniProt P05979); experiment: Inhibition of cyclooxygenase in sheep seminal vesicle microsomes ([14C]-arachidonic acid, TLC); format: biochemical; details: pH 7.0, read-out: IC50 for inhibition of cyclooxygenase (B)
T2 construct: suspension of sheep seminal vesicle microsomes; from tissue; host or cells: sheep seminal vesicle microsomes
T2 sequence (P05979 25-600): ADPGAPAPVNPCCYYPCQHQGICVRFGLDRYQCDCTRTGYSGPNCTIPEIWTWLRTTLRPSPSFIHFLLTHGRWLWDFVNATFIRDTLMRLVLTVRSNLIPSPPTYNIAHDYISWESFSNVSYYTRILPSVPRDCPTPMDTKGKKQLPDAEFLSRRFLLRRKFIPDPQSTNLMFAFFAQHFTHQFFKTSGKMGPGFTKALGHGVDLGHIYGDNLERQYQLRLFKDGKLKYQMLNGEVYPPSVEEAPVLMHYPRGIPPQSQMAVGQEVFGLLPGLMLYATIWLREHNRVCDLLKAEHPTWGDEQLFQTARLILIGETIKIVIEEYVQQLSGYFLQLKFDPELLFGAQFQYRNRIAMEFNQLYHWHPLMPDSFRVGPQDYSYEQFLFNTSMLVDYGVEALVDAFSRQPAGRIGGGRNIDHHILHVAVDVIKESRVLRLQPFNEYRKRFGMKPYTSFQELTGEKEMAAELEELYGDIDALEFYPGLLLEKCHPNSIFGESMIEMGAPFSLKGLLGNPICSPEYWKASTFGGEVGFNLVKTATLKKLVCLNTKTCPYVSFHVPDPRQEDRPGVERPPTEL
Experimental: The effect of the test compounds on the activity of cyclooxygenase was tested using a suspension of sheep seminal vesicle microsomes in 50 mM potassium phosphate buffer of pH 7.0 which was incubated with the solvent only (as control) or with the test compound and [^14 C]-arachidonic acid. The "IC50 -values (B)" (i.e. the concentration of the test compound which causes an 50%-inhibition of the cyclooxygenase) were determined by thin layer chromatography and by means of a TLC-Linear-Analyzer.

[1] = tested on: ex vivo iLTB4-formation (5-lipoxygenase activity) in whole blood of rats; experiment: Inhibition of ex vivo iLTB4-formation in rat whole blood after oral administration; set-up: species or system male rats (Wistar strain)
Experimental: The bioavailability of the compounds of formula I after oral administration was characterized by means of an ex vivo biochemical assessment method described by Tateson et al. in Brit. Pharmacol., 94, 528 (1988).
Compounds of formula I were orally administered to male rats (Wistar strain). 1 hour later the rats were bled by heart puncture in letal CO2 -narcosis. The 5-lipoxygenase reaction was triggered by the addition of the calcium-ionophor A23187 to an end concentration of […] to aliquots of rat whole blood and subsequent incubation for 30 minutes at 37° C. in a water bath. At the end of the incubation the samples were centrifuged to collect the cell free plasma. The concentration of the immunoreactive LTB4 (iLTB4 ng/ml) in each plasma sample was determined by a LTB4 -radioimmunoassay (^3 H-LTB4 -RIA, Amersham) by means of a LTB4 -standard curve in diluted rat plasma. For calculation of the percent inhibition of ex vivo iLTB4 -formation in whole blood of rats treated with the compounds of formula I rats treated with appropiate vehicle solution were included in all experiments, aliquots of their blood were run in parallel and were processed in the same way as described. The mean iLTB4 -formation per ml plasma of these vehicle treated control rats served as 100 percent value of normal control 5-lipoxygenase activity. The percent inhibition of the ex vivo iLTB4 -formation after oral administration of compounds of formula I was calculated as follows: 100 minus 100 times the quotient of the mean iLTB4 concentration per ml plasma of the rats treated with compounds of formula I […] and the mean iLTB4 concentration per ml plasma of the control rats.

bronchoconstriction = experiment: Antiasthmatic activity: ovalbumin-induced bronchoconstriction in passively sensitized guinea pigs (Konzett-Rössler); format: in vivo; details: 100 mg/kg oral, 0.2 mg/kg i.v. ovalbumin challenge, 10 minutes
Experimental: The antiasthmatic activity of compounds of formula I was tested in narcotised and ventilated guinea pigs. For the induction of an asthmatic reaction, the animals were passively sensitized by a single intraperitoneal injection of anti-ovalbumin serum. 48 hours afterwards the asthmatic reaction was elicited by intravenous challenge with 0.2 mg/kg ovalbumin. The immediately resulting bronchoconstriction was measured as increase in overflow according to the Konzett-Rbssler method for a period of 10 minutes. Effects caused by histamine, serotonin and sympathic counterreaction were eliminated by intravenous pretreatment with 2.15 mg/kg mepyramine, 46.4 μg/kg propranolol, 4.64 mg/kg atropin and 1 mg/kg methysergide, all given 5 minutes before challenge.
After oral administration of the product of Example 5a or of the product of Example 9, in doses of 100 mg/kg each, the bronchoconstriction was inhibited by 54% or by 67%, respectively.

[2] = tested on: endotoxin/galactosamine-induced hepatitis, increase of liver specific enzymes in the serum; experiment: Endotoxin/galactosamine-induced hepatitis in mice (septic shock model); format: in vivo; details: 10 mg/kg i.p. for each of five applications, 8 hours after endotoxin
Experimental: As a test model to evaluate the effects of test compounds in septic shock the endotoxin/galactosamine-induced hepatitis in mice has been used. […] The intraperitoneal application of 5-lipoxygenase inhibitors 30 minutes before, simultaneously with and 2, 4 and 6 hours after the application of endotoxin inhibitis the hepatitis-induced increase of the serum activities of these enzymes. On administration of compounds of the formula I in doses of 10 mg/kg for each of the five applications the following percentual inhibitions of the increase of the enzymes GPT and SDH were achieved (the increase of enzymatic activities in control animals was set at 100%): […]

SMILES | IC50 (5-lipoxygenase) [nM] | Quotient (IC50 cyclooxygenase (B) / 5-lipoxygenase (A)) (5-lipoxygenase) | IC50 (cyclooxygenase) [nM] | inhibition in vivo at 21.5 mg/kg ([1]; Rattus norvegicus, 21.5 mg/kg oral, blood taken 1 hour later) [%] | inhibition of bronchoconstriction (bronchoconstriction) [%] | Inhibition of increase of GPT [2] [%] | Inhibition of increase of SDH [2] [%] | inhibition of the ex vivo iLTB4-formation ([1]; 10 mg/kg oral) [%]
COc1ccc(C#Cc2cccc(C(C)N(O)C(C)=O)c2)cc1 (centres unmarked) [Example 5a] | 290 | 1517 | 440000 | 75 | 54 | – | – | –
CC(=O)N(O)Cc1cccc(C#Cc2ccc3ccccc3c2)c1 [Example 1, N-[3-(Naphth-2-yl-ethynyl)-benzyl]-acetohydroxamic acid] | 670 | > 746 | > 500000 | – | – | 47 | 58 | –
COc1ccc(C#Cc2cccc(C(C)N(O)C(N)=O)c2)cc1 (centres unmarked) [Example 9, N-Hydroxy-N-{1-[3-(4-methoxy-phenylethynyl)-phenyl]-ethyl}-urea] | 150 | 667 | 100000 | – | 67 | 94 | 90 | 86
